Data on two compounds can be found in patent publication US8367692B2, “Spiro (piperidine-4,2′-pyrrolidine)-1-(3,5-trifluoromethyl phenyl) methylcarboxamides as NK1 tachikynin receptor antagonists” (Glaxo Wellcome Manufacturing Pte Ltd, priority 2008, dated 2013).

For one assay, the target named is T1, human NK1 receptor (Homo sapiens, UniProt P25103).
T1 construct: expressed in transfected cells; host or cells: human U2OS cells transiently transduced with recombinant BacMam virus
The experiment in a line: NK1 functional assay (B), FLIPR inhibition of intracellular calcium release induced by Substance P. The format is cell-based. The note with it: U2OS cells transduced with BacMam virus expressing human NK1; ligand Substance P; read-out: binding potency pKi in the NK1 functional assay (B) (converted). An excerpt: B) Measurement of NK Functional Potency:
Compounds of the invention were further characterised in a functional assay using FLIPR technology for the determination of their effect to inhibit the intracellular calcium release induced by interaction of NK receptors with its perspective ligands. Human U2OS cells transiently transduced with recombinant BacMam virus expressing human NK1, NK2 and NK3 receptors were used in the studies (see J. P. Condreay et al, Proc. Natl. Acad. Sci. USA 1999, 96(1): 127-132). Briefly, U20S cells were harvested from tissue culture flasks, re-suspended to a cell density of 200-300K/ml and mixed with recombinant BacMam virus carrying NKR gene in a virus/cell ratio of 1% (v/v). 10K-15K cells/well were then seeded in 384-well Greiner bio-one plate in culture medium (DMEM with 10% FBS), incubated overnight in 5% CO2 at 37° C. […] Finally, 10 uL/well of NKR ligands in assay buffer containing 0.1% BSA was added to the cells and fluorescence signal read on a FLIPR system. […] IC50 values of each compound were determined by an 11-point 3×-dilution inhibition curve. The potency each antagonist (fpKi) was calculated from plC50 by the Cheng-Prusoff equation using EC50 of ligand determined in a separate experiment.

The target of another assay is T2, NK1 receptor (Meriones unguiculatus, UniProt Q5DUB1).
T2 construct: from tissue; host or cells: living gerbil, central nervous system (icv agonist challenge)
T2 sequence (Q5DUB1 whole entry): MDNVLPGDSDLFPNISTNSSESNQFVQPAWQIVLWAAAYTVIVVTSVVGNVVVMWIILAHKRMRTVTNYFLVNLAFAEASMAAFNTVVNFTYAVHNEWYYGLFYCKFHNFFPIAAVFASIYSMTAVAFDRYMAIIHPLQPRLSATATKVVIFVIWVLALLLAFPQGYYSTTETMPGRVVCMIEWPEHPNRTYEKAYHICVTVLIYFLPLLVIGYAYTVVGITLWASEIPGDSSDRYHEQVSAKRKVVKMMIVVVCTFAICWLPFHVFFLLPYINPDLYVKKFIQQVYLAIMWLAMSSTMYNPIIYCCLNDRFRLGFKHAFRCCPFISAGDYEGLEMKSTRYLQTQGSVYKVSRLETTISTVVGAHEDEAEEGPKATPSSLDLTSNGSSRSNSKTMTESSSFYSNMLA
The experiment in a line: Gerbil foot tapping model (GR73632-induced, icv). Format: in vivo. The text has this:
The ability of the compounds of the invention to penetrate the central nervous system and to bind at the NK1 receptor may be determined using the gerbil foot tapping model as described by Rupniak & Williams, Eur. Jour. of Pharmacol., 1994.
Intracerebroventricular (icv) administration of the NK1 receptor agonist GR73632 (R. M. Hagan et al., Neuropeptides 1991, 19 (2), 127-135) a characteristic hind leg foot tapping (GFT) response in gerbils which can be inhibited by potent NK1 receptor antagonists. The gerbil foot tapping paradigm was carried out as follows; gerbils were dosed with compound of the invention, and following an appropriate pre-treatment time were anaesthetised using isofluorane/oxygen mixture. The skull was then exposed and 5 ul of GR73632 (3 pmol conc.) was injected by insertion of a cuffed 25G needle to a depth of 4 mm below bregma, directly into the lateral ventricle (intracerebroventricular dosing). Immediately following the injection, gerbils were placed individually into a clear observation box to recover.
Upon the gerbil regaining its righting reflex, the duration of repetitive hind foot tapping was recorded over a 5 minute period. The dose of the test compound required to inhibit by 50% the tapping induced by the NK1 agonist expressed as mg/kg is referred to as the ID50 values.

T1 sequence (P25103 whole entry): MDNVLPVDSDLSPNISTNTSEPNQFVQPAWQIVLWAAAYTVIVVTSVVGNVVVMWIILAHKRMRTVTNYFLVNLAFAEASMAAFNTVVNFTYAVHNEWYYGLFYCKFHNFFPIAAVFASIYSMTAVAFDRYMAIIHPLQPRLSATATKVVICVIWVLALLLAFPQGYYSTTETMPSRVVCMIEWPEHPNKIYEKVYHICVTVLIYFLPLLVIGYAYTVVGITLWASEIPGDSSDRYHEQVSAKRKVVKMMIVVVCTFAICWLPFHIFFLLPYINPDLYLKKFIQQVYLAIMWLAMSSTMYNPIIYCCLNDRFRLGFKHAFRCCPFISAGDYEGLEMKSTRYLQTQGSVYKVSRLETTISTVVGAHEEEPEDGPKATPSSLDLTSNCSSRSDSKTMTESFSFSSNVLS

On to `Cc1cc(F)ccc1[C@H]1C[C@@]2(CCC(C(N)=O)N2)CCN1C(=O)N(C)[C@H](C)c1cc(C(F)(F)F)cc(C(F)(F)F)c1` (single isomer, unassigned; diastereoisomer 1) [Example 1], for which the Ki at human NK1 receptor was less than 1 nM. With `Cc1cc(F)ccc1[C@H]1C[C@]2(CC[C@H](C(N)=O)N2)CCN1C(=O)N(C)[C@H](C)c1cc(C(F)(F)F)cc(C(F)(F)F)c1.Cl` [Example 4, (2R,5S,7R)—N^8-{(1R)-1-[3,5-bis(trifluoromethyl)phenyl]ethyl}-7-(4-fluoro-2-methylphenyl)-N^8-methyl-1,8-diazaspiro[4.5]decane-2,8-dicarboxamide hydrochloride], the “GR73632-induced Foot Tapping behaviour” value on NK1 receptor (dose range of 0.1 to 10 mg/kg p.o.) is “significantly attenuated”. Besides, the ED50 on NK1 receptor (po, read-out: ID50, dose required to inhibit by 50% the tapping induced by the NK1 agonist) is approximately 0.67 mg/kg.
